Results: PubChem BioAssay AID1963827 (Molecular Pharmacology Branch, DTP, NCI, 2024)

Tested on: 994946-033-R-J1-PDC complex spheroid viability
Experiment: Anticancer human tumor 994946-033-R-J1-PDC patient-derived melanoma cell line growth inhibition [POLQ]
Settings: for IC50: curve of first compound; for viability, T/C: stronger effect = lower value
Procedure, shortened: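 Patient-derived tumour cells were co-cultured with HUVEC and mesenchymal stem cells as multicellular spheroids at 37 °C. They were treated with POLQ inhibitors (novobiocin, ART-558, RP6685) alone or combined with other agents. Top concentrations were at or near clinical Cmax (otherwise 10 microM; SN-38 at 1 microM), decreasing in half-log steps.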

[1] = second compound 0.0316 µM, first compound 0.0316 µM
[2] = second compound 0.0316 µM, first compound 0.1 µM
[3] = second compound 0.0316 µM, first compound 0.316 µM
[4] = second compound 0.0316 µM, first compound 1 µM
[5] = second compound 0.0316 µM, first compound 3.16 µM
[6] = second compound 0.0316 µM, first compound 10 µM
[7] = second compound 0.1 µM, first compound 0.0316 µM
[8] = second compound 0.1 µM, first compound 0.1 µM
[9] = second compound 0.1 µM, first compound 0.316 µM
[10] = second compound 0.1 µM, first compound 1 µM
[11] = second compound 0.1 µM, first compound 3.16 µM
[12] = second compound 0.1 µM, first compound 10 µM
[13] = second compound 0.316 µM, first compound 0.0316 µM
[14] = second compound 0.316 µM, first compound 0.1 µM
[15] = second compound 0.316 µM, first compound 0.316 µM
[16] = second compound 0.316 µM, first compound 1 µM
[17] = second compound 0.316 µM, first compound 3.16 µM
[18] = second compound 0.316 µM, first compound 10 µM
[19] = second compound 1 µM, first compound 0.0316 µM
[20] = second compound 1 µM, first compound 0.1 µM
[21] = second compound 1 µM, first compound 0.316 µM
[22] = second compound 1 µM, first compound 1 µM
[23] = second compound 1 µM, first compound 3.16 µM
[24] = second compound 1 µM, first compound 10 µM
[25] = second compound 3.16 µM, first compound 0.0316 µM
[26] = second compound 3.16 µM, first compound 0.1 µM
[27] = second compound 3.16 µM, first compound 0.316 µM
[28] = second compound 3.16 µM, first compound 1 µM
[29] = second compound 3.16 µM, first compound 3.16 µM
[30] = second compound 3.16 µM, first compound 10 µM
[31] = second compound 10 µM, first compound 0.0316 µM
[32] = second compound 10 µM, first compound 0.1 µM
[33] = second compound 10 µM, first compound 0.316 µM
[34] = second compound 10 µM, first compound 1 µM
[35] = second compound 10 µM, first compound 3.16 µM
[36] = second compound 10 µM, first compound 10 µM
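Note: spheroids exposed to drugs for 7 days.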
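Throughout, for viability, T/C: 100% = DMSO vehicle treated spheroids.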

For `O=C(c1cc(Cc2n[nH]c(=O)c3ccccc23)ccc1F)N1CCN(C(=O)C2CC2)CC1` + Cc1cccc(N(C)C(=O)C2C(O)CCN2c2nc(C)cc(C(F)(F)F)c2C#N)c1, the IC50 (second compound 0.0316 µM) was 6.12 µM, the IC50 (second compound 0.1 µM) was 4.16 µM and the IC50 (second compound 0.316 µM) was 8.94 µM. For the same compound, the IC50 (second compound 1 µM) was 6.77 µM, the IC50 (second compound 3.16 µM) was 4.89 µM and the IC50 (second compound 10 µM) was over 10 µM. It also gave a viability, T/C [1] of 103%, a viability, T/C [2] of 92.8% and a viability, T/C [3] of 82.3%. It also gave a viability, T/C [4] of 94.2%, a viability, T/C [5] of 80.2% and a viability, T/C [6] of 27.3%. The viability, T/C [7] was 100%, the viability, T/C [8] was 105% and the viability, T/C [9] was 89.9%. It also gave a viability, T/C [10] of 69.6%, a viability, T/C [11] of 57.9% and a viability, T/C [12] of 35.9%. For the same compound, the viability, T/C [13] was 106%, the viability, T/C [14] was 95.3% and the viability, T/C [15] was 82.5%. The viability, T/C [16] was 86.8%, the viability, T/C [17] was 92% and the viability, T/C [18] was 45.5%. For the same compound, the viability, T/C [19] was 79.7%, the viability, T/C [20] was 102% and the viability, T/C [21] was 81.7%. It also gave a viability, T/C [22] of 84.3%, a viability, T/C [23] of 75.6% and a viability, T/C [24] of 37%. For the same compound, the viability, T/C [25] was 105%, the viability, T/C [26] was 97.6% and the viability, T/C [27] was 79.5%. The viability, T/C [28] was 88.3%, the viability, T/C [29] was 56.8% and the viability, T/C [30] was 33.3%. The viability, T/C [31] was 110%, the viability, T/C [32] was 93.4% and the viability, T/C [33] was 83.3%. The viability, T/C [34] was 78%, the viability, T/C [35] was 77.5% and the viability, T/C [36] was 56.1%.
Work on `COc1cc2cc(C(=O)CCC(=O)O)sc2cc1OC` + Nc1ccc(C#CCN(C(=O)Cc2ncc(C(F)(F)F)cc2C(F)(F)F)c2ccc(F)cc2)nn1 yielded an IC50 (second compound 0.0316 µM) of over 10 µM, an IC50 (second compound 0.1 µM) of over 10 µM and an IC50 (second compound 0.316 µM) of over 10 µM. It also gave an IC50 (second compound 1 µM) of over 10 µM, an IC50 (second compound 3.16 µM) of over 10 µM and an IC50 (second compound 10 µM) of over 10 µM. For the same compound, the viability, T/C [1] was 81.7%, the viability, T/C [2] was 99.5% and the viability, T/C [3] was 92.4%. It also gave a viability, T/C [4] of 83.2%, a viability, T/C [5] of 86.7% and a viability, T/C [6] of 67.9%. It also gave a viability, T/C [7] of 126%, a viability, T/C [8] of 101% and a viability, T/C [9] of 102%. The viability, T/C [10] was 92.1%, the viability, T/C [11] was 87.2% and the viability, T/C [12] was 87.1%. For the same compound, the viability, T/C [13] was 111%, the viability, T/C [14] was 86% and the viability, T/C [15] was 87.6%. It also gave a viability, T/C [16] of 109%, a viability, T/C [17] of 72.3% and a viability, T/C [18] of 96%. It also gave a viability, T/C [19] of 93.5%, a viability, T/C [20] of 98% and a viability, T/C [21] of 80.1%. It also gave a viability, T/C [22] of 79.4%, a viability, T/C [23] of 88.9% and a viability, T/C [24] of 95.8%. For the same compound, the viability, T/C [25] was 116%, the viability, T/C [26] was 75.5% and the viability, T/C [27] was 111%. For the same compound, the viability, T/C [28] was 96.3%, the viability, T/C [29] was 94.9% and the viability, T/C [30] was 66.8%. It also gave a viability, T/C [31] of 80.5%, a viability, T/C [32] of 81.9% and a viability, T/C [33] of 90.7%. It also gave a viability, T/C [34] of 91.8%, a viability, T/C [35] of 115% and a viability, T/C [36] of 78.8%.
`Nc1ccn(C2OC(CO)C(O)C2(F)F)c(=O)n1` (stereo unspecified) + Nc1ccc(C#CCN(C(=O)Cc2ncc(C(F)(F)F)cc2C(F)(F)F)c2ccc(F)cc2)nn1 was tested, and the IC50 (second compound 0.0316 µM) was under 0.0316 µM, the IC50 (second compound 0.1 µM) was under 0.0316 µM and the IC50 (second compound 0.316 µM) was under 0.0316 µM. For the same compound, the IC50 (second compound 1 µM) was under 0.0316 µM, the IC50 (second compound 3.16 µM) was 0.0355 µM and the IC50 (second compound 10 µM) was 0.12 µM. For the same compound, the viability, T/C [1] was 19.8%, the viability, T/C [2] was 9.8% and the viability, T/C [3] was 13.9%. It also gave a viability, T/C [4] of 6.8%, a viability, T/C [5] of 9.12% and a viability, T/C [6] of 4.73%. It also gave a viability, T/C [7] of 13.4%, a viability, T/C [8] of 6.85% and a viability, T/C [9] of 7.22%. It also gave a viability, T/C [10] of 8.61%, a viability, T/C [11] of 6.71% and a viability, T/C [12] of 2.46%. It also gave a viability, T/C [13] of 26.9%, a viability, T/C [14] of 10.2% and a viability, T/C [15] of 6.41%. The viability, T/C [16] was 6.86%, the viability, T/C [17] was 5.84% and the viability, T/C [18] was 3.65%. For the same compound, the viability, T/C [19] was 49.5%, the viability, T/C [20] was 11.8% and the viability, T/C [21] was 7.84%. The viability, T/C [22] was 6.62%, the viability, T/C [23] was 5.64% and the viability, T/C [24] was 2.7%. For the same compound, the viability, T/C [25] was 53.2%, the viability, T/C [26] was 22.4% and the viability, T/C [27] was 8.85%. The viability, T/C [28] was 9.68%, the viability, T/C [29] was 8.92% and the viability, T/C [30] was 3.34%. It also gave a viability, T/C [31] of 75.5%, a viability, T/C [32] of 56.2% and a viability, T/C [33] of 17.5%. For the same compound, the viability, T/C [34] was 7.83%, the viability, T/C [35] was 11.2% and the viability, T/C [36] was 6.31%.
